Source: patent US8299048B2, “Hexahydrocyclopentyl[f]indazole sulfonamides and derivatives thereof as selective glucocorticoid receptor modulators” (Merck Sharp & Dohme Corp., priority 2008, dated 2012)
Read-outs that look alike come from different tables or passages of the source.

Target: T1, human GR (Homo sapiens, UniProt P04150)
T1 sequence (P04150 1-777): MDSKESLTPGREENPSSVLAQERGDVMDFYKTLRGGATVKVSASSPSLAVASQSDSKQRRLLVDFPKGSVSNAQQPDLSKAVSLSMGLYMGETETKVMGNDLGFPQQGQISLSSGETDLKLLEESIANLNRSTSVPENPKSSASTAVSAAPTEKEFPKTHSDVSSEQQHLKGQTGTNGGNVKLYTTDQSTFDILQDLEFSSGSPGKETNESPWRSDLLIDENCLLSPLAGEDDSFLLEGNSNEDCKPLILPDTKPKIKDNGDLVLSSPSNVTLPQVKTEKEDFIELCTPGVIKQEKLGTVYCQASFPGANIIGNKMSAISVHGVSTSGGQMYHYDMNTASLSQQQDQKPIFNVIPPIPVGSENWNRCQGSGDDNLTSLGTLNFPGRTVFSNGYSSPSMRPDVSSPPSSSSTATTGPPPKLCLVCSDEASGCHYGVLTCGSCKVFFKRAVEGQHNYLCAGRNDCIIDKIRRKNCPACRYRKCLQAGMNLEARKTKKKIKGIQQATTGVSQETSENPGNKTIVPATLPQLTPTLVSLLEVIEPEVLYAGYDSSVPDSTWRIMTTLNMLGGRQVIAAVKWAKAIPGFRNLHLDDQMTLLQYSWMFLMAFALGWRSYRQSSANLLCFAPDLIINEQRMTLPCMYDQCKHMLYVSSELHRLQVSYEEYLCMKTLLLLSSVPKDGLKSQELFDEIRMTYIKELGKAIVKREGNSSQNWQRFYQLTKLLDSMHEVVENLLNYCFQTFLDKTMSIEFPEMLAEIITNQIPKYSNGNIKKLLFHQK
Test: Transrepression Assay (GITAR), TNFα-β-lactamase reporter in U937 cells
Type: cell-based
Parameters: U937 cells contain an endogenous glucocorticoid receptor (GR); endogenous in cells; host or cells: U937 cells stably transfected with the TNF-alpha promoter/beta-lactamase reporter
Details: for GITAR > GRAMM % SEP: GITAR Emax minus GRAMMER Emax; for EC50: inflection point, read-out: Transrepression U937 Cells GITAR IP
Method in brief: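 Read-out: CCF2-AM β-lactamase signal after 70–90 min loading at room temperature. U937 TNF-α-promoter reporter cells (endogenous GR), compound 30–45 min at 37 °C, then PMA 5 ng/ml + LPS 100 ng/ml final, ~18 hr. Normalised to 100 nM dexamethasone = 100%.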

[1] = U-937, U937 cells, maximum activity, read-out: Transrepression U937 Cells GITAR Emax
[2] = U-937, activity repressed by 100 nM dexamethasone alone set as 100%, read-out: maximal activity in the transrepression (GITAR) assay

Compound	GITAR > GRAMM % SEP [%]	EC50 (U937 cells) [nM]	Transrepression U937 Cells GITAR Emax (U937 cells, maximum activity) [%]	Emax [1] [%]	Emax [2] [%]
C[C@]12Cc3cnn(-c4ccc(F)cc4)c3C=C1CC[C@@H]2CN(CCc1ccccn1)S(=O)(=O)Cc1cccnc1 [Example 1, N-{[(4αR,5S)-1-(4-Fluorophenyl)-4α-methyl-1,4,4α,5,6,7-hexahydrocyclopenta[f]indazol-5-yl]methyl}-1-pyridin-3-yl-N-(2-pyridin-2-ylethyl)methanesulfonamide]	41.9	407	73.5	–	–
C[C@]12Cc3cnn(-c4ccc(F)cc4)c3C=C1CC[C@@H]2CN(CC1CC1)S(=O)(=O)c1ccccc1F [Example 2, N-(cyclopropylmethyl)-2-fluoro-N-{[(4αR,5S)-1-(4-fluorophenyl)-4α-methyl-1,4,4α,5,6,7-hexahydrocyclopenta[f]indazol-5-yl]methyl}benzenesulfonamide]	–	260	–	73.3	> 5
C=CCN(C[C@H]1CCC2=Cc3c(cnn3-c3ccc(F)cc3)C[C@@]21C)S(=O)(=O)c1ccccc1F [Example 3, N-allyl-2-fluoro-N-{[(4αR,5S)-1-(4-fluorophenyl)-4α-methyl-1,4,4α,5,6,7-hexahydrocyclopenta[f]indazol-5-yl]methyl}benzenesulfonamide]	–	407	–	65.1	> 5
C[C@]12Cc3cnn(-c4ccc(F)cc4)c3C=C1CC[C@@H]2CN(CC1CC1)S(=O)(=O)c1ccccc1C(F)(F)F [Example 4, N-(cyclopropylmethyl)-N-{[(4αR,5S)-1-(4-fluorophenyl)-4α-methyl-1,4,4α,5,6,7-hexahydrocyclopenta[f]indazol-5-yl]methyl}-2-(trifluoromethyl)benzenesulfonamide]	36.2	256	–	53.1	> 5
C[C@]12Cc3cnn(-c4ccc(F)cc4)c3C=C1CC[C@@H]2CN(CCO)S(=O)(=O)Cc1cccc(C(F)(F)F)c1 [Example 63, N-{[(4αR,5S)-1-(4-fluorophenyl)-4α-methyl-1,4,4α,5,6,7-hexahydrocyclopenta[f]indazol-5-yl]methyl}-N-(2-hydroxyethyl)-1-[3-(trifluoromethyl)phenyl]methanesulfonamide]	9.9	404	–	12	> 5
Cc1ccc(S(=O)(=O)N(CCO)C[C@H]2CCC3=Cc4c(cnn4-c4ccc(F)cc4)C[C@@]32C)s1 [Example 64, N-{[(4αR,5S)-1-(4-fluorophenyl)-4α-methyl-1,4,4α,5,6,7-hexahydrocyclopenta[f]indazol-5-yl]methyl}-N-(2-hydroxyethyl)-5-methylthiophene-2-sulfonamide]	21.1	731	–	29	> 5
Cn1cc(S(=O)(=O)N(CCO)C[C@H]2CCC3=Cc4c(cnn4-c4ccc(F)cc4)C[C@@]32C)c(C(F)(F)F)n1 [Example 65, N-{[(4αR,5S)-1-(4-fluorophenyl)-4α-methyl-1,4,4α,5,6,7-hexahydrocyclopenta[f]indazol-5-yl]methyl}-N-(2-hydroxyethyl)-1-methyl-3-(trifluoromethyl)-1H-pyrazole-4-sulfonamide]	41.3	894	–	61	> 5
Cc1cc(S(=O)(=O)N(CCO)C[C@H]2CCC3=Cc4c(cnn4-c4ccc(F)cc4)C[C@@]32C)c(C)o1 [Example 66, N-{[(4αR,5S)-1-(4-fluorophenyl)-4α-methyl-1,4,4α,5,6,7-hexahydrocyclopenta[f]indazol-5-yl]methyl}-N-(2-hydroxyethyl)-2,5-dimethylfuran-3-sulfonamide]	19.2	929	–	24.5	> 5
Cn1nc(C(F)(F)F)cc1-c1ccc(S(=O)(=O)N(CCO)C[C@H]2CCC3=Cc4c(cnn4-c4ccc(F)cc4)C[C@@]32C)s1 [Example 67, N-{[(4αR,5S)-1-(4-fluorophenyl)-4α-methyl-1,4,4α,5,6,7-hexahydrocyclopenta[f]indazol-5-yl]methyl}-N-(2-hydroxyethyl)-5-[1-methyl-3-(trifluoromethyl)-1H-pyrazole-5-yl]thiophene-2-sulfonamide]	22.8	2060	–	29.3	> 5
C[C@]12Cc3cnn(-c4ccc(F)cc4)c3C=C1CC[C@@H]2CN(CCO)S(=O)(=O)c1cccc(C#N)c1 [Example 68, 3-cyano-N-{[(4αR,5S)-1-(4-fluorophenyl)-4α-methyl-1,4,4α,5,6,7-hexahydrocyclopenta[f]indazol-5-yl]methyl}-N-(2-hydroxyethyl)benezenesulfonamide]	22.9	757	–	32.9	> 5
C[C@]12Cc3cnn(-c4ccc(F)cc4)c3C=C1CC[C@@H]2CN(CCO)S(=O)(=O)c1ccc(Oc2cccc(Cl)c2C#N)cc1 [Example 69, 4-(3-chloro-2-cyanophenoxy)-N-{[(4αR,5S)-1-(4-fluorophenyl)-4α-methyl-1,4,4α,5,6,7-hexahydrocyclopenta[f]indazol-5-yl]methyl}-N-(2-hydroxyethyl)benzenesulfonamide]	22.2	2540	–	34.8	> 5
C[C@]12Cc3cnn(-c4ccc(F)cc4)c3C=C1CC[C@@H]2CN(CCO)S(=O)(=O)c1ccccc1C(F)(F)F [Example 70, N-{[(4αR,5S)-1-(4-fluorophenyl)-4α-methyl-1,4,4α,5,6,7-hexahydrocyclopenta[f]indazol-5-yl]methyl}-N-(2-hydroxyethyl)-2-(trifluoromethyl)benzenesulfonamide]	15.1	1010	–	40.8	> 5
Cc1noc(C)c1S(=O)(=O)N(CCO)C[C@H]1CCC2=Cc3c(cnn3-c3ccc(F)cc3)C[C@@]21C [Example 71, N-{[(4αR,5S)-1-(4-fluorophenyl)-4α-methyl-1,4,4α,5,6,7-hexahydrocyclopenta[f]indazol-5-yl]methyl}-N-(2-hydroxyethyl)-3,5-dimethylisoxazole-4-sulfonamide]	19.2	302	–	82.3	> 5
C[C@]12Cc3cnn(-c4ccc(F)cc4)c3C=C1CC[C@@H]2CN(CCO)S(=O)(=O)c1cc(F)cc(F)c1 [Example 72]	25.5	486	–	60.8	> 5
COC(=O)c1ccccc1S(=O)(=O)N(CCO)C[C@H]1CCC2=Cc3c(cnn3-c3ccc(F)cc3)C[C@@]21C [Example 73, methyl 2-{[{[(4αR,5S)-1-(4-fluorophenyl)-4α-methyl-1,4,4α,5,6,7-hexahydrocyclopenta[f]indazol-5-yl]methyl}(2-hydroxyethyl)amino]sulfonyl}benzoate]	56.0	363	–	81.4	> 5
C[C@]12Cc3cnn(-c4ccc(F)cc4)c3C=C1CC[C@@H]2CN(CCO)S(=O)(=O)c1ccc(Oc2ccccn2)cc1 [Example 74, N-{[(4αR,5S)-1-(4-fluorophenyl)-4α-methyl-1,4,4α,5,6,7-hexahydrocyclopenta[f]indazol-5-yl]methyl}-N-(2-hydroxyethyl)-4-(pyridin-2-yloxy)benzenesulfonamide]	9.9	1140	–	44.1	> 5
C[C@]12Cc3cnn(-c4ccc(F)cc4)c3C=C1CC[C@@H]2CN(CCO)S(=O)(=O)Cc1ccccc1 [Example 75, N-{[(4αR,5S)-1-(4-fluorophenyl)-4α-methyl-1,4,4α,5,6,7-hexahydrocyclopenta[f]indazol-5-yl]methyl}-N-(2-hydroxyethyl)-1-phenylmethanesulfonamide]	14.4	473	–	28.8	> 5
CNC(=O)Nc1ccc(S(=O)(=O)N(CCO)C[C@H]2CCC3=Cc4c(cnn4-c4ccc(F)cc4)C[C@@]32C)c(Cl)c1 [Example 76, 2-chloro-N-{[(4αR,5S)-1-(4-fluorophenyl)-4α-methyl-1,4,4α,5,6,7-hexahydrocyclopenta[f]indazol-5-yl]methyl}-N-(2-hydroxyethyl)-4-{[(methylamino)carbonyl]amino}-benzenesulfonamide]	9.5	2110	–	13	> 5
